Consider 18 compounds from ChEMBL document CHEMBL3886773, “Immune system modulators” (2016).

This assay concerns the target T1, Toll-like receptor 9 (Homo sapiens, UniProt Q9NR96).
T1 sequence (Q9NR96 whole entry): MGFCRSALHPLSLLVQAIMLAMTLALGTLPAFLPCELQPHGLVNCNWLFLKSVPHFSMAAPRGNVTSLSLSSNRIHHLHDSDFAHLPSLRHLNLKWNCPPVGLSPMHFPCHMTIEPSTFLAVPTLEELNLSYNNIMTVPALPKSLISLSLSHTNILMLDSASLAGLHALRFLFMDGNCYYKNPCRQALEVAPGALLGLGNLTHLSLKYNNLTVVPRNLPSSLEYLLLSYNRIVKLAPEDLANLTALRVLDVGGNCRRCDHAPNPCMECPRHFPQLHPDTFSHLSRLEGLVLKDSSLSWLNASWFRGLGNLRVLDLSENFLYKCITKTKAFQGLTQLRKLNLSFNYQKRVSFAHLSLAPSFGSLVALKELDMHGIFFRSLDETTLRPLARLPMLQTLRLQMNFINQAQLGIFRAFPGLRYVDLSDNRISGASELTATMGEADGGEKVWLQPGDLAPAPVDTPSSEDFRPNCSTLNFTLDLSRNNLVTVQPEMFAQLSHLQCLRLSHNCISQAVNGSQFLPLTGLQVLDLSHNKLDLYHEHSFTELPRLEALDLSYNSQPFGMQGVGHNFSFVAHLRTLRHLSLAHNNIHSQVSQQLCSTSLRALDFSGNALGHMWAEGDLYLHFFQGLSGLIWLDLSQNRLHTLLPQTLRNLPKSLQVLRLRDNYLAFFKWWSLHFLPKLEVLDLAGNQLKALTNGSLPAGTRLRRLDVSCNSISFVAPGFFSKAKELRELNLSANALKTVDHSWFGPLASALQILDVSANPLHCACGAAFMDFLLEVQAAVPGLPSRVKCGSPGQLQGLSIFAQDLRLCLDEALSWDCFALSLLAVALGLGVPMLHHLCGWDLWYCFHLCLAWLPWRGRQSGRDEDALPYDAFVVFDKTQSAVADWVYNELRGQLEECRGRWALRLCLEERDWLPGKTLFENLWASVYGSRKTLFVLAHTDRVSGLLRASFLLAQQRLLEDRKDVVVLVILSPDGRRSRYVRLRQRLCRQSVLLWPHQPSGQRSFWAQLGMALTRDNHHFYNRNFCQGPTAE
In words: Antagonism Assay: Day 1: A cell suspension of HEK-Blue™-hTLR9 cells at ~450,000 cells per ml in test medium which contained 5% (v/v) heat inactivated FBS was prepared. 180 μl of cell suspension (Ë¿80,000 cells) was added per well of a flat-bottom 96-well plate and place in an incubator at 37° C. for overnight. Day 2: Test compounds were serially diluted in test medium, generally starting at 10 μM, and diluting by 3 fold in a 96 well master plate. 20 μl of diluted test compound was transferred using a 12 channel multi-channel pipet to the cell plate and incubated at 37° C. for 1 hour. Then 20 μl of an hTLR9 agonist (such as ODN 2006, 1 μM) was added to each well and the plate incubated at 37° C. overnight. Day 3: Invivogen's QUANTI-Blue™ was prepared following the manufacturer's instructions. […] of resuspended QUANTI-Blue™ was added per well of a flat bottom 96-well plate. 20 μl per well of induced HEK-Blue™-hTLR9 cells supernatant was then added to the plate and the plate was incubated at 37° C. for 1-3 h. SEAP levels were determined using a spectrophotometer at 620 nm.
Turning to `Cc1nc2c(NCCN3CCOCC3)nc(-c3ccccc3)nc2n(CCN2CCOCC2)c1=O`, the IC50 – broadly, the concentration that inhibits the measured activity by half – came to 2480 nM. The same measure for `CN1CCN(c2cnc3c(NCCc4ccccn4)nc(-c4ccccc4)nc3n2)CC1`: 2180 nM; for `CN1CCN(c2cnc3c(NCCCNc4nc(N)nc(N)n4)nc(-c4ccccc4)nc3n2)CC1`: 198 nM; for `N#Cc1ccc(-c2nc3c(NCCN4CCOCC4)nc(-c4ccccc4)nc3n(CCN3CCOCC3)c2=O)cc1`: 487 nM.

Take `O=c1c(-c2cc(F)cc(F)c2)nc2c(NCCN3CCOCC3)nc(-c3ccccc3)nc2n1CCN1CCOCC1`: the IC50 worked out at 901 nM. This IC50 is about 1.9-fold higher than that of the compound before.

`CN1CCN(c2nc3nc(-c4ccc(C(C)(C)C)cc4)nc(NCCN4CCOCC4)c3nc2NCCN2CCOCC2)CC1`: the half-inhibitory concentration (IC50) came out at 273 nM. For `CN1CCN(c2cnc3c(NCCc4ccncc4)nc(-c4ccccc4)nc3n2)CC1`, the IC50 is 991 nM. `CN1CCN(CCNc2nc(-c3ccccc3)nc3c2nc(-c2ccccc2)c(=O)n3CCN2CCN(C)CC2)CC1` came in with an IC50 of 124 nM. In the case of `CN1CCN(c2ccc(-c3nc(NCCN4CCOCC4)c4nccnc4n3)cc2)CC1`, the IC50 is 285 nM. In turn, `O=c1c(C(F)(F)F)nc2c(NCCN3CCOCC3)nc(-c3ccccc3)nc2n1CCN1CCOCC1` registered an IC50 of 3820 nM. `CN1CCN(c2nc3nc(-c4ccccc4)nc(NCCN4CCOCC4)c3nc2Cl)CC1`: the IC50 was 62 nM.

On to `CN1CCN(CCNc2nc(-c3ccccc3)nc3nc(N4CCN(C)CC4)cnc23)CC1`, for which the IC50 is 113 nM. Consider `CN(C)CCN(C)c1nc(-c2ccccc2)nc2nc(N3CCN(C)CC3)cnc12`, for which the IC50 is 112 nM. The IC50 values of the last two compounds are within 1.5-fold of each other.

Consider `O=c1c(-c2ccccc2)nc2c(NCCN3CCOCC3)nc(-c3ccccc3)nc2n1CCN1CCOCC1`, for which the IC50 stood at 137 nM. With `CN1CCN(c2nc3nc(-c4ccccc4)nc(NCCN4CCOCC4)c3nc2NCCN2CCOCC2)CC1`, the IC50 came to 317 nM. For the compound `Cc1cnc(CNc2nc(-c3ccccc3)nc3nc(N4CCN(C)CC4)cnc23)cn1`, the IC50 was determined as 2490 nM. As to `CN1CCN(c2cnc3c(NCCSC(=N)N)nc(-c4ccccc4)nc3n2)CC1`, the IC50 was more than 10000 nM. For the compound `CN1CCN(c2cnc3c(NCCCn4cncn4)nc(-c4ccccc4)nc3n2)CC1`, the IC50 stood at 2950 nM. In other words, the single-digit micromolar range.
